Measured values published in patent US11167015B2, “Arginine and its use as a T cell modulator” (INSTITUTE FOR RESEARCH IN BIOMEDICINE, priority 2016, dated 2021).

System: human CD4+ T cell clones
Assay: Survival experiment with CRISPR/Cas9 gene knockout T cell clones
Format: cell-based
Experimental: Naïve CD4 T cells were activated with plate-bound CD3 and CD28 antibodies. 48 h after activation IL-2 was added to culture media (500 U ml^−1). After a further 3 days of culturing, cells were washed, counted and equal cell numbers were plated in medium devoid of IL-2. The withdrawal medium was no longer supplemented with e.g. L-arginine. Cell viability was assessed with annexin V.
Two to four short guide RNAs (sgRNAs) (Table 1) per gene were designed using the online tool provided by the Zhang laboratory (tools.genome-engineering.org). Oligonucleotide pairs with BsmBI-compatible overhangs were annealed and cloned into the lentiviral vector lentiCRISPR v2 (Addgene plasmid #52961) (Sanjana et al., 2014). […]
To screen for clones with disrupted target genes, individual clones were lysed with sample buffer containing 80 mM Tris pH 6.8, 10.5% glycerol, 2% SDS and 0.00004% Bromophenol blue. Lysate of 100,000 cells was separated by SDS-PAGE followed, blotted onto PVDF membranes and analyzed with antibodies to target proteins, Baz1B (Abeam, ab50850), PSIP1 (Bethyl, A300-848A), DDX17 (Abeam, ab180190), PTPN6 (Santa Cruz, sc-287) or TSN (Sigma, HPA059561). […] To screen for clones with disrupted B2M, single cell clones were stained with an antibody to MHC-1 (eBioscience, HLA-ABC-FITC) and analyzed by flow cytometry.

N=C(N)NCCC[C@H](N)C(=O)O [L-arginine]
L-arginine's beneficial effect on T cell survival in BAZ1B, PSIP1 and TSN knockout clones (knockout of BAZ1B, PSIP1 and TSN): significantly reduced
effect of L-arginine on T cell survival in PTPN6 (Shp-1) or B2M knockout clones (knockout of PTPN6 (Shp-1) or B2M): did not alter
